Data on 4 substances can be found in patent US20110178015A1, “METHODS OF TREATMENT USING BIASED LIGANDS FOR RECEPTORS SUCH AS THE PTH RECEPTOR” (priority 2007, published 2011).

For assay [1], the target named is type I PTH/PTH-related peptide receptor (PTH1R), endogenous in primary murine osteoblasts (mouse) (UniProt P41593). Put plainly: cell-based or functional assay.
Assay [2] deals with PTH1 receptor. To be noted: Gardella 1996; Sneddon 2004; Bisello 2002; cited from earlier work.
Assay [3] addresses T1, AT1A angiotensin receptor (Rattus norvegicus, UniProt P25095).
T1 sequence (P25095 1-359): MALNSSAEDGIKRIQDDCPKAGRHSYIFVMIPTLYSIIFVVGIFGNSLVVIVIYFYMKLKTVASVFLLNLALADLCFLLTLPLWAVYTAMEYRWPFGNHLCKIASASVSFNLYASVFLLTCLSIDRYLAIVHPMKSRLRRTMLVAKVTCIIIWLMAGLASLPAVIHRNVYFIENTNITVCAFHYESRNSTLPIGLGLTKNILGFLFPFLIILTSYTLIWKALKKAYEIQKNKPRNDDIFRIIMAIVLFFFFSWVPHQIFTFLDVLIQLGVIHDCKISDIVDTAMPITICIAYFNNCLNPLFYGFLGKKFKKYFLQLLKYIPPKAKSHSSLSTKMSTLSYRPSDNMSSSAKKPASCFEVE
To be noted: cited from earlier work.

type I PTH/PTH-related peptide receptor (PTH1R), endogenous in primary murine osteoblasts (mouse), sequence (P41593 27-591): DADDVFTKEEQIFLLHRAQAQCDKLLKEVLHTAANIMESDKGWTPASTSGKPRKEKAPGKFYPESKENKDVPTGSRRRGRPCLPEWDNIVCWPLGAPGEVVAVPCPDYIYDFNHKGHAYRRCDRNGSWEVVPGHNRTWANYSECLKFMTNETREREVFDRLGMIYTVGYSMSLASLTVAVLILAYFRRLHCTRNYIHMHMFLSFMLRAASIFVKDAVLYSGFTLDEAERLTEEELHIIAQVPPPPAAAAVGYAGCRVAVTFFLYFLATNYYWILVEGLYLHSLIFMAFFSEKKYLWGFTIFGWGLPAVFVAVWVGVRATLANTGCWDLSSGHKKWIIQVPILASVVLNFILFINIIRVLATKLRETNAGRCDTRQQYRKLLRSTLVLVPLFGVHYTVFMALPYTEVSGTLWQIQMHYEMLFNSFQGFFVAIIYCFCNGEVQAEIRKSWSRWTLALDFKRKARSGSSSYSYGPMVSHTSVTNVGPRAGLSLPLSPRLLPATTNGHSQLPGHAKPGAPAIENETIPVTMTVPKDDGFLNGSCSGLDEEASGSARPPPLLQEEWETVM

As for PTH(1-34) (peptide), the ERK1/2 phosphorylation in WT primary osteoblasts, 100 nM PTH(1-34), 5 min (fold over basal) in assay [1] worked out at 3.

With “Trp^l-PTHrP(1-36) (WVSEHQLLHDKGKSIQDLRRRFFLHHLIAEIHTAEI; Parathyroid hormone-related protein; UniProt P12272 37-72, looked up, variant A1W) [PTHrP analog promoting Gs-coupling without β-arrestin recruitment, reference compound]”, in assay [2], the “PTH1 receptor-Gs coupling / cAMP production” value was “promoting Gs-coupling and cAMP production”; the “arrestin-dependent sequestration / β-arrestin recruitment” value is on record as “without inducing β-arrestin recruitment or desensitization”.

As for [Sar1,Ile4,Ile8]SII, in assay [3], the “G protein-independent/β-arrestin-dependent signaling to ERK1/2” value was “selectively stimulating G protein-independent/β-arrestin-dependent 7TMR signaling to ERK1/2”.

For the substance “(D-Trp12, Tyr34)-PTH(7-34) (from UniProt P01268 38-65) (peptide)”, the ERK1/2 phosphorylation in WT primary osteoblasts, 1 µM PTH-βarr, 5 min (fold over basal) in assay [1] was 3.
